Activity and MIC data for 6 compounds are collected here from ChEMBL document CHEMBL1145511, “Comparative activities of daptomycin, linezolid, and tigecycline against catheter-related methicillin-resistant Staphylococcus bacteremic isolates embedded in biofilm” (2007).

For assay [1], the system named is Staphylococcus aureus. The assay can be described thus: Antibacterial activity against methicillin-resistant Staphylococcus aureus after 24 hrs by silicone disk biofilm colonization method. In kind it is functional, organism-based.
In assay [2] the test system is Staphylococcus aureus. The assay can be described thus: Antibacterial activity against methicillin-resistant Staphylococcus aureus at 4 hrs daily exposure for 2 days. In kind it is functional, organism-based.
Assay [3] relates to Staphylococcus aureus. As to the kind of experiment: Antibacterial activity against methicillin-resistant Staphylococcus aureus at 4 hrs daily exposure for 3 days. In kind it is functional, organism-based.
Assay [4] deals with Staphylococcus aureus. The assay can be described thus: Antibacterial activity against methicillin-resistant Staphylococcus aureus at 4 hrs daily exposure for 5 day. In kind it is functional, organism-based.
In assay [5] the test system is Staphylococcus aureus. As to the kind of experiment: Antibacterial activity against methicillin-resistant Staphylococcus aureus 4913 at 4 hrs daily exposure for 5 days by broth microdilution method. It is filed as functional. On the technique in general: Broth dilution looks for growth in wells or tubes with falling amounts of substance.
Assay [6] has as its system Staphylococcus aureus. As to the kind of experiment: Antibacterial activity against methicillin-resistant Staphylococcus aureus 4930 at 4 hrs daily exposure for 5 days by broth microdilution method. It is filed as functional.
The subject of assay [7] is Staphylococcus aureus. The assay can be described thus: Antibacterial activity against methicillin-resistant Staphylococcus aureus 5004 at 4 hrs daily exposure for 5 days by broth microdilution method. It is filed as functional.
Assay [8] deals with Staphylococcus aureus. The assay can be described thus: Antibacterial activity against methicillin-resistant Staphylococcus aureus 4803 at 4 hrs daily exposure for 1 day by broth microdilution method. It is filed as functional.
Assay [9] deals with Staphylococcus aureus. As to the kind of experiment: Antibacterial activity against methicillin-resistant Staphylococcus aureus 4913 at 4 hrs daily exposure for 1 day by broth microdilution method. In kind it is functional.
In assay [10] the test system is Staphylococcus aureus. As to the kind of experiment: Antibacterial activity against methicillin-resistant Staphylococcus aureus 4930 at 4 hrs daily exposure for 1 day by broth microdilution method. It is filed as functional.
In assay [11] the test system is Staphylococcus aureus. As to the kind of experiment: Antibacterial activity against methicillin-resistant Staphylococcus aureus 5098 at 4 hrs daily exposure for 1 day by broth microdilution method. In kind it is functional.
Assay [12] has as its system Staphylococcus aureus. As to the kind of experiment: Antibacterial activity against methicillin-resistant Staphylococcus aureus 5004 at 4 hrs daily exposure for 1 day by broth microdilution method. It is filed as functional.
The subject of assay [13] is Staphylococcus aureus. As to the kind of experiment: Antibacterial activity against methicillin-resistant Staphylococcus aureus 859 at 4 hrs daily exposure for 1 day by broth microdilution method. In kind it is functional.
For assay [14], the system named is Staphylococcus aureus. As to the kind of experiment: Antibacterial activity against methicillin-resistant Staphylococcus aureus 4875 at 4 hrs daily exposure for 1 day by broth microdilution method. It is filed as functional.
The test system of assay [15] is Staphylococcus aureus. As to the kind of experiment: Antibacterial activity against methicillin-resistant Staphylococcus aureus 4342 at 4 hrs daily exposure for 1 day by broth microdilution method. It is filed as functional.
Assay [16] has as its system Staphylococcus aureus. The assay can be described thus: Antibacterial activity against methicillin-resistant Staphylococcus aureus 293 at 4 hrs daily exposure for 1 day by broth microdilution method. In kind it is functional.
The test system of assay [17] is Staphylococcus aureus. The assay can be described thus: Antibacterial activity against methicillin-resistant Staphylococcus aureus 789 at 4 hrs daily exposure for 1 day by broth microdilution method. In kind it is functional.
For assay [18], the system named is Staphylococcus aureus. As to the kind of experiment: Antibacterial activity against methicillin-resistant Staphylococcus aureus 4803 at 4 hrs daily exposure for 5 days by broth microdilution method. It is filed as functional.
Assay [19] relates to Staphylococcus aureus. The assay can be described thus: Antibacterial activity against methicillin-resistant Staphylococcus aureus 4875 at 4 hrs daily exposure for 5 days by broth microdilution method. It is filed as functional.
Assay [20] concerns Staphylococcus aureus. As to the kind of experiment: Antibacterial activity against methicillin-resistant Staphylococcus aureus 4342 at 4 hrs daily exposure for 5 days by broth microdilution method. It is filed as functional.
Assay [21] has as its system Staphylococcus aureus. The assay can be described thus: Antibacterial activity against methicillin-resistant Staphylococcus aureus 293 at 4 hrs daily exposure for 5 days by broth microdilution method. It is filed as functional.
The test system of assay [22] is Staphylococcus aureus. As to the kind of experiment: Antibacterial activity against methicillin-resistant Staphylococcus aureus 789 at 4 hrs daily exposure for 5 days by broth microdilution method. It is filed as functional, organism-based.
The test system of assay [23] is Staphylococcus aureus. The assay can be described thus: Antibacterial activity against methicillin-resistant Staphylococcus aureus 5098 at 4 hrs daily exposure for 5 days by broth microdilution method. In kind it is functional.
Assay [24] concerns Staphylococcus aureus. As to the kind of experiment: Antibacterial activity against methicillin-resistant Staphylococcus aureus 859 at 4 hrs daily exposure for 5 days by broth microdilution method. In kind it is functional.

≈ marks a conversion by molar mass, not a printed value. Calls of active or inactive are those of the source. No cut-off for these calls is given here.

Usually MIC stands for the lowest concentration that inhibits growth of the organism. Lower therefore signals greater potency.

`CCCCCCCCCC(=O)N[C@@H](Cc1c[nH]c2ccccc12)C(=O)N[C@H](CC(N)=O)C(=O)N[C@@H](CC(=O)O)C(=O)N[C@@H]1C(=O)NCC(=O)N[C@@H](CCCN)C(=O)N[C@@H](CC(=O)O)C(=O)N[C@H](C)C(=O)N[C@@H](CC(=O)O)C(=O)NCC(=O)N[C@H](CO)C(=O)N[C@@H]([C@H](C)CC(=O)O)C(=O)N[C@@H](CC(=O)c2ccccc2N)C(=O)O[C@@H]1C`: the result in the assay on Staphylococcus aureus [1] and in the assay with Staphylococcus aureus [2] was Active.
`CN(C)c1cc(NC(=O)CNC(C)(C)C)c(O)c2c1C[C@H]1C[C@H]3[C@H](N(C)C)C(O)=C(C(N)=O)C(=O)[C@@]3(O)C(O)=C1C2=O`: the outcome in the assay on Staphylococcus aureus [1] and in the assay with Staphylococcus aureus [3] was Active.
`CN(C)c1ccc(O)c2c1C[C@H]1C[C@H]3[C@H](N(C)C)C(O)=C(C(N)=O)C(=O)[C@@]3(O)C(O)=C1C2=O`: the outcome in the assay with Staphylococcus aureus [1] and in the assay on Staphylococcus aureus [2] was Active.
As to `CN[C@H](CC(C)C)C(=O)N[C@H]1C(=O)N[C@@H](CC(N)=O)C(=O)N[C@H]2C(=O)N[C@H]3C(=O)N[C@H](C(=O)N[C@H](C(=O)O)c4cc(O)cc(O)c4-c4cc3ccc4O)[C@H](O)c3ccc(c(Cl)c3)Oc3cc2cc(c3O[C@@H]2O[C@H](CO)[C@@H](O)[C@H](O)[C@H]2O[C@H]2C[C@](C)(N)[C@H](O)[C@H](C)O2)Oc2ccc(cc2Cl)[C@H]1O`, the outcome in the assay on Staphylococcus aureus [4] was inactive.
Take `CC(=O)NC[C@H]1CN(c2ccc(N3CCOCC3)c(F)c2)C(=O)O1` [LINEZOLID]: the MIC against Staphylococcus aureus [5] was 8 µg/mL (≈ 23.7 µM); in the assay on Staphylococcus aureus [8], 0.5 µg/mL (≈ 1.48 µM); against Staphylococcus aureus [9], 0.5 µg/mL (≈ 1.48 µM); in the assay on Staphylococcus aureus [10], 0.5 µg/mL (≈ 1.48 µM); in the assay on Staphylococcus aureus [11] it was 0.25 µg/mL (≈ 0.741 µM); against Staphylococcus aureus [12], 0.5 µg/mL (≈ 1.48 µM). The MIC is 0.5 µg/mL (≈ 1.48 µM) against Staphylococcus aureus [13]; 0.5 µg/mL (≈ 1.48 µM) against Staphylococcus aureus [14]; 1 µg/mL (≈ 2.96 µM) in the assay with Staphylococcus aureus [15]; 1 µg/mL (≈ 2.96 µM) against Staphylococcus aureus [16]; 0.5 µg/mL (≈ 1.48 µM) with Staphylococcus aureus [17]. For the same compound, the result in the assay on Staphylococcus aureus [6], in the assay with Staphylococcus aureus [7], with Staphylococcus aureus [18], in the assay on Staphylococcus aureus [19], in the assay on Staphylococcus aureus [20] and in the assay with Staphylococcus aureus [21] was Active. Further, the outcome in the assay with Staphylococcus aureus [22] was Active. In addition, in the assay with Staphylococcus aureus [4], the outcome was inactive.
As to `CO[C@H]1/C=C/O[C@@]2(C)Oc3c(C)c(O)c4c(O)c(c(/C=N/N5CCN(C)CC5)c(O)c4c3C2=O)NC(=O)/C(C)=C\C=C\[C@H](C)[C@H](O)[C@@H](C)[C@@H](O)[C@@H](C)[C@H](OC(C)=O)[C@@H]1C` [RIFAMPIN], the MIC against Staphylococcus aureus [5] was 128 µg/mL (≈ 156 µM); with Staphylococcus aureus [6], < 0.06 µg/mL; with Staphylococcus aureus [23] it was 128 µg/mL (≈ 156 µM); in the assay with Staphylococcus aureus [7] it was 128 µg/mL (≈ 156 µM); in the assay on Staphylococcus aureus [8] it was < 0.06 µg/mL; against Staphylococcus aureus [9], 128 µg/mL (≈ 156 µM). Besides, the MIC in the assay on Staphylococcus aureus [10], against Staphylococcus aureus [11], in the assay with Staphylococcus aureus [12], against Staphylococcus aureus [13], with Staphylococcus aureus [14] and in the assay on Staphylococcus aureus [15] was < 0.06 µg/mL throughout. The MIC against Staphylococcus aureus [16] was < 0.06 µg/mL; with Staphylococcus aureus [17], < 0.06 µg/mL; against Staphylococcus aureus [18], 128 µg/mL (≈ 156 µM); against Staphylococcus aureus [24], 32 µg/mL (≈ 38.9 µM); in the assay on Staphylococcus aureus [19] it was 128 µg/mL (≈ 156 µM); in the assay with Staphylococcus aureus [20], 128 µg/mL (≈ 156 µM). The same compound had an MIC in the assay on Staphylococcus aureus [21] of 128 µg/mL (≈ 156 µM). Further, the outcome with Staphylococcus aureus [4] was inactive. Moreover, the result in the assay with Staphylococcus aureus [22] was Active.
